Laboratory results from BindingDB's records for doi:10.3109/14756369709035812 (Universite Paul Sabatier, 1997).

Molecular target: T1, Hexokinase-1 (Saccharomyces cerevisiae (strain ATCC 204508 / S288c), UniProt P04806)
T1 sequence (P04806 whole entry): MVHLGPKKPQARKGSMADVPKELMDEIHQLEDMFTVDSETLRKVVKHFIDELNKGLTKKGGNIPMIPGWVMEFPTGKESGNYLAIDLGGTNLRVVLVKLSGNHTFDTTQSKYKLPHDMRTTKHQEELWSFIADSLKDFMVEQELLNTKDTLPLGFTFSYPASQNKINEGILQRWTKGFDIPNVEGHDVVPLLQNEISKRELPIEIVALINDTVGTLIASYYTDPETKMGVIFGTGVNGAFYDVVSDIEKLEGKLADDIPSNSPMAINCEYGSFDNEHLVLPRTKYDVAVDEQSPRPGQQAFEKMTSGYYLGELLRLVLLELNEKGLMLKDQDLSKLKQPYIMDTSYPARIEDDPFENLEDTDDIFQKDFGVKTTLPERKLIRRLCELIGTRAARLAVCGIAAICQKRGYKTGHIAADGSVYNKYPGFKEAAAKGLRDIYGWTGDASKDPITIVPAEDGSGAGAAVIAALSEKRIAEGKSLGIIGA
Experiment: Enzyme Inhibition Assay
Conditions: pH 7.6; 25 °C
Procedure: The assay phosphotransferase activity was followed spectrophotometrically b reduction of NADP in the presence of an excess of glucose-6-phosphate-dehydrogenase (method A). ATPase activity was measured by spectrophotometric measurement of the rate of oxidation of NADH in the presence of phospho-enol-pyruvate, pyruvated-kinase and lactate-dehydrogenase (method B).

IC50 [mM]	Compound
7	O=C(N[C@@H]1[C@@H](O)[C@H](O)[C@@H](CO)O[C@H]1O)c1ccccc1 [Glucosamine analog, 1]
18	CC(=O)Nc1ccccc1C(=O)NC1C(O)OC(CO)C(O)C1O (configuration not stated) [Glucosamine analog, 4]
3	O=C(NC1C(O)OC(CO)C(O)C1O)c1ccccc1[N+](=O)[O-] (configuration not stated) [Glucosamine analog, 7]
1	Nc1ccccc1C(=O)NC1C(O)OC(CO)C(O)C1O (configuration not stated) [Glucosamine analog, 9]
6	O=C(NC1C(O)OC(CO)C(O)C1O)c1cccc([N+](=O)[O-])c1 (configuration not stated) [Glucosamine analog, 8]
8	Cc1ccccc1C(=O)N[C@@H]1[C@@H](O)[C@H](O)[C@@H](CO)O[C@@H]1O [Glucosamine analog, 2]
6	Nc1cccc(C(=O)NC2C(O)OC(CO)C(O)C2O)c1 (configuration not stated) [Glucosamine analog, 10]
